According to US8580825B2, “Oxadiazole inhibitors of leukotriene production” (Boehringer Ingelheim International GmbH, priority 2010, dated 2013):

Key:
[1] = system: synthesis of LTB4 in human whole blood; assay: human whole blood LTB4 production inhibition assay; format: cell-based; conditions: calcimycin stimulated, read-out: hWB LTB4 IC50
Method: Compounds are additionally tested in a human whole blood assay to determine their ability to inhibit the synthesis of LTB4 in a cellular system. Compounds are combined with heparinized human whole blood and incubated for 15 minutes at 37° C. Calcimycin (20 μM final, prepared in phosphate-buffered saline, pH 7.4) is then added and the mixture is incubated for another 30 minutes at 37° C. The samples are centrifuged for 5 min at low speed (1500×g) and the plasma layer is removed. Plasma LTB4 concentrations are then measured using an antibody-based homogenous time-resolved fluorescence method (CisBio, Bedford, Mass.).

[2] = molecular target: T1, recombinant human FLAP protein (Homo sapiens, UniProt P20292); assay: FLAP binding assay (Scintillation Proximity Assay, displacement of [125I]L-691,831); conditions: read-out: FLAP SPA IC50
T1 construct: made in house; host or cells: Sf9 insect cells (100,000xg membrane fraction used)
T1 sequence (P20292 1-161): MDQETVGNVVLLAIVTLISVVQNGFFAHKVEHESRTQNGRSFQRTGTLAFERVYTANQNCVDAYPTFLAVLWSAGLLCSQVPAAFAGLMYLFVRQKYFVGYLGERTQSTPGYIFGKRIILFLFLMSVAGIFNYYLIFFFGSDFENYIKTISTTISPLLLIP
Method: Compounds are assessed for the ability to bind to FLAP in a binding assay that measures compound-specific displacement of an iodinated (^125I) FLAP inhibitor via a Scintillation Proximity Assay format (adapted from S. Charleson et al., Mol. Pharmacol., 1992, 41, 873-879).
Cell pellets produced from sf9 insect cells expressing recombinant human FLAP protein are resuspended in buffer A [15 mM Tris-HCl (pH 7.5), 2 mM MgCl2, 0.3 mM EDTA, 1 mM PMSF]. The cells are lysed with a Dounce homogenizer and the material is centrifuged at 10,000×g for 10 minutes. The supernatant is then collected and centrifuged at 100,000×g for 60 minutes. To prepare membrane protein for an assay, an aliquot of the 100,000×g pellet is resuspended in 1 ml of buffer A, Dounce homogenized, and finally subjected to polytron mixing (30 seconds). Membrane protein (25 μl, 5 μg) is mixed with WGA SPA beads (Amersham) and stirred for 1 h. […] (final concentrations: beads, 200 μg/well; protein, 5 μg/well; [^125I] probe, 0.08 nM/well (17 nCi/well). The plates are shaken for 2 h before reading on a Microbeta plate reader. Non-specific binding is determined by the addition of 10 μM cold L-691,831 compound.

SMILES | IC50 [1] [nM] | IC50 [2] [nM]
CC(O)Cn1cc(-c2nc(C(C)(c3ccc(-c4cnc(N)nc4)nc3)C(C)C)no2)cn1 (stereo not shown) [Example 1, 1-[4-(3-{2-[6-(2-aminopyrimidin-5-yl)pyridin-3-yl]-3-methylbutan-2-yl}-1,2,4-oxadiazol-5-yl)-1H-pyrazol-1-yl]propan-2-ol] | 54 | 8.3
CC(C)C(C)(c1ccc(-c2cnc(N)nc2)nc1)c1noc(-c2cnn(CC(C)(C)O)c2)n1 (stereo not shown) [Example 2, 1-[4-(3-{2-[6-(2-aminopyrimidin-5-yl)pyridin-3-yl]-3-methylbutan-2-yl}-1,2,4-oxadiazol-5-yl)-1H-pyrazol-1-yl]-2-methylpropan-2-ol] | 74 | 10
CC(C)C(C)(c1ccc(-c2cnc(N)nc2)nc1)c1noc(-c2cnn(C)c2)n1 (stereo not shown) [Example 3, 5-(5-{3-methyl-2-[5-(1-methyl-1H-pyrazol-4-yl)-1,2,4-oxadiazol-3-yl]butan-2-yl}pyridin-2-yl)pyrimidin-2-amine] | 68 | 4.7
CC(C)[C@](C)(c1ccc(-c2cnc(N)nc2)nc1)c1noc(-c2cnn(C)c2)n1 [Example 4, 5-(5-{(2R)-3-methyl-2-[5-(1-methyl-1H-pyrazol-4-yl)-1,2,4-oxadiazol-3-yl]butan-2-yl}pyridin-2-yl)pyrimidin-2-amine] | 20 | 3
CC(C)[C@@](C)(c1ccc(-c2cnc(N)nc2)nc1)c1noc(-c2cnn(C)c2)n1 [Example 5, 5-(5-{(2S)-3-methyl-2-[5-(1-methyl-1H-pyrazol-4-yl)-1,2,4-oxadiazol-3-yl]butan-2-yl}pyridin-2-yl)pyrimidin-2-amine] | 750 | 76.2
CC(C)C(C)(c1ccc(-c2cnc(N)nc2)nc1)c1noc(-c2cnn(C(C)(C)CO)c2)n1 (stereo not shown) [Example 6, 2-[4-(3-{2-[6-(2-aminopyrimidin-5-yl)pyridin-3-yl]-3-methylbutan-2-yl}-1,2,4-oxadiazol-5-yl)-1H-pyrazol-1-yl]-2-methylpropan-1-ol] | 220 | 8.6
CC(C)C(C)(c1ccc(-c2cnc(N)nc2)nc1)c1noc(-c2cnn(CC(=O)N(C)C)c2)n1 (stereo not shown) [Example 7, 2-[4-(3-{2-[6-(2-aminopyrimidin-5-yl)pyridin-3-yl]-3-methylbutan-2-yl}-1,2,4-oxadiazol-5-yl)-1H-pyrazol-1-yl]-N,N-dimethylacetamide] | 180 | 14.4
COCCn1cc(-c2nc(C(C)(c3ccc(-c4cnc(N)nc4)nc3)C(C)C)no2)cn1 (stereo not shown) [Example 8, 5-[5-(2-{5-[1-(2-methoxyethyl)-1H-pyrazol-4-yl]-1,2,4-oxadiazol-3-yl}-3-methylbutan-2-yl)pyridin-2-yl]pyrimidin-2-amine] | 68 | 6.3
CC(C)C(C)(c1ccc(-c2cnc(N)nc2)nc1)c1noc(-c2cnn(C3COC3)c2)n1 (stereo not shown) [Example 9, 5-[5-(3-methyl-2-{5-[1-(oxetan-3-yl)-1H-pyrazol-4-yl]-1,2,4-oxadiazol-3-yl}butan-2-yl)pyridin-2-yl]pyrimidin-2-amine] | 25 | 5.9
COCCNc1cnc(-c2nc(C(C)(c3ccc(-c4cnc(N)nc4)nc3)C(C)C)no2)cn1 (stereo not shown) [Example 10, 5-{5-[2-(5-{5-[(2-methoxyethyl)amino]pyrazin-2-yl}-1,2,4-oxadiazol-3-yl)-3-methylbutan-2-yl]pyridin-2-yl}pyrimidin-2-amine] | 60 | 4.9
CC(C)C(C)(c1ccc(-c2cnc(N)nc2)nc1)c1noc(-c2cnn3cccnc23)n1 (stereo not shown) [Example 11, 5-(5-{3-methyl-2-[5-(pyrazolo[1,5-a]pyrimidin-3-yl)-1,2,4-oxadiazol-3-yl]butan-2-yl}pyridin-2-yl)pyrimidin-2-amine] | 40 | 2.9

Continued, values first:

IC50 [1] [nM] | IC50 [2] [nM] | SMILES
55 | 3.6 | CCNc1cnc(-c2nc(C(C)(c3ccc(-c4cnc(N)nc4)nc3)C(C)C)no2)cn1 (stereo not shown) [Example 12, 5-[5-(2-{5-[5-(ethylamino)pyrazin-2-yl]-1,2,4-oxadiazol-3-yl}-3-methylbutan-2-yl)pyridin-2-yl]pyrimidin-2-amine]
52 |  | CC(C)(O)Cn1cc(-c2nc(C(C)(c3ccc(-c4cnc(N)nc4)nc3)C3CC3)no2)cn1 (stereo not shown) [Example 66, 1-[4-(3-{1-[6-(2-aminopyrimidin-5-yl)pyridin-3-yl]-1-cyclopropylethyl}-1,2,4-oxadiazol-5-yl)-1H-pyrazol-1-yl]-2-methylpropan-2-ol]
41 |  | CC(C)(O)Cn1cc(-c2nc([C@@](C)(c3ccc(-c4cnc(N)nc4)nc3)C3CC3)no2)cn1 [Example 81, 1-[4-(3-{(1R)-1-[6-(2-aminopyrimidin-5-yl)pyridin-3-yl]-1-cyclopropylethyl}-1,2,4-oxadiazol-5-yl)-1H-pyrazol-1-yl]-2-methylpropan-2-ol]
1200 |  | CC(C)(O)Cn1cc(-c2nc([C@](C)(c3ccc(-c4cnc(N)nc4)nc3)C3CC3)no2)cn1 [Example 82, 1-[4-(3-{(1S)-1-[6-(2-aminopyrimidin-5-yl)pyridin-3-yl]-1-cyclopropylethyl}-1,2,4-oxadiazol-5-yl)-1H-pyrazol-1-yl]-2-methylpropan-2-ol]
319 |  | CC(C)(O)Cn1cc(-c2nc([C@@](C)(c3ccc(-c4cnc(N)c(C#N)c4)nc3)C3CC3)no2)cn1 [Example 162, 6′-Amino-5-((R)-1-cyclopropyl-1-{5-[1-(2-hydroxy-2-methyl-propyl)-1H-pyrazol-4-yl]-[1,2,4]oxadiazol-3-yl}-ethyl)-[2,3′]bipyridinyl-5′-carbonitrile]
171 |  | CC(C)(O)Cn1cc(-c2nc([C@@](C)(c3ccc(-c4cnc5c(c4)OCCN5)nc3)C3CC3)no2)cn1 [Example 167, 1-[4-(3-{(R)-1-Cyclopropyl-1-[6-(3,4-dihydro-2H-pyrido[3,2-b][1,4]oxazin-7-yl)-pyridin-3-yl]-ethyl}-[1,2,4]oxadiazol-5-yl)-pyrazol-1-yl]-2-methyl-propan-2-ol]
63 |  | CC(C)(O)Cn1cc(-c2nc([C@@](C)(c3ccc(-c4cnc5[nH]ccc5n4)nc3)C3CC3)no2)cn1 [Example 168, 1-[4-(3-{(R)-1-Cyclopropyl-1-[6-(5H-pyrrolo[2,3-b]pyrazin-2-yl)-pyridin-3-yl]-ethyl}-[1,2,4]oxadiazol-5-yl)-pyrazol-1-yl]-2-methyl-propan-2-ol]
105 |  | CNc1ncc(-c2ccc([C@](C)(c3noc(-c4cnn(C5CCOCC5)c4)n3)C3CC3)cn2)cn1 [Example 169, {5-[5-((R)-1-Cyclopropyl-1-{5-[1-(tetrahydro-pyran-4-yl)-1H-pyrazol-4-yl]-[1,2,4]oxadiazol-3-yl}-ethyl)-pyridin-2-yl]-pyrimidin-2-yl}-methyl-amine]
112 |  | CNc1cnc(-c2ccc([C@](C)(c3noc(-c4cnn(C)c4)n3)C3CC3)cn2)cn1 [Example 170, [5-(5-{(R)-1-Cyclopropyl-1-[5-(1-methyl-1H-pyrazol-4-yl)-[1,2,4]oxadiazol-3-yl]-ethyl}-pyridin-2-yl)-pyrazin-2-yl]-methyl-amine]
119 |  | C[C@@](c1ccc(-c2cnc(N)nc2)nc1)(c1noc(-c2cnn(C3CCOCC3)c2)n1)C1CC1 [Example 171, 5-[5-((R)-1-Cyclopropyl-1-{5-[1-(tetrahydro-pyran-4-yl)-1H-pyrazol-4-yl]-[1,2,4]oxadiazol-3-yl}ethyl)-pyridin-2-yl]-pyrimidin-2-ylamine]
104 |  | CNc1ncc(-c2ccc([C@](C)(c3noc(-c4cnn(C)c4)n3)C3CC3)cn2)cn1 [Example 172, [5-(5-{(R)-1-Cyclopropyl-1-[5-(1-methyl-1H-pyrazol-4-yl)-[1,2,4]oxadiazol-3-yl]ethyl}-pyridin-2-yl)-pyrimidin-2-yl]-methyl-amine]
221 |  | CNc1cnc(-c2ccc([C@](C)(c3noc(-c4cnn(C5CCOCC5)c4)n3)C3CC3)cn2)cn1 [Example 173, {5-[5-((R)-1-Cyclopropyl-1-{5-[1-(tetrahydro-pyran-4-yl)-1H-pyrazol-4-yl]-[1,2,4]oxadiazol-3-yl}-ethyl)-pyridin-2-yl]-pyrazin-2-yl}-methyl-amine]
53 |  | C[C@@](c1ccc(-c2cnc(N)cn2)nc1)(c1noc(-c2cnn(C3CCOCC3)c2)n1)C1CC1 [Example 174]
267 |  | CNc1ncc(-c2ccc([C@](C)(c3noc(-c4cnn(CC(=O)N(C)C)c4)n3)C3CC3)cn2)cn1 [Example 176, 2-[4-(3-{(R)-1-Cyclopropyl-1-[6-(2-methylamino-pyrimidin-5-yl)-pyridin-3-yl]-ethyl}-[1,2,4]oxadiazol-5-yl)-pyrazol-1-yl]-N,N-dimethyl-acetamide]
